Test results published in the CheMixHub viscosity set.

Test: xn = mol fraction of the nth substance listed

ClC(Cl)=C(Cl)Cl + C1CCCCC1
303.15 K, 101 kPa
Settings	viscosity [mPa·s]
x1 = 0.1695	0.762
x1 = 0.2317	0.777
x1 = 0.2698	0.75
x1 = 0.3794	0.742
x1 = 0.4194	0.74
x1 = 0.4306	0.75
x1 = 0.4966	0.738
x1 = 0.5117	0.751
x1 = 0.5532	0.741
x1 = 0.5969	0.751
x1 = 0.6182	0.746
x1 = 0.6612	0.758
x1 = 0.7242	0.764
x1 = 0.7644	0.771
x1 = 0.8345	0.775
x1 = 0.8383	0.781
x1 = 0.9204	0.8

O=[N+]([O-])c1ccccc1 + C1CCCCC1
viscosity [mPa·s]
Settings	298.15 K	303.15 K	308.15 K	313.15 K
101 kPa, x2 = 0.1079	–	1.461	–	–
101 kPa, x2 = 0.2065	–	1.325	–	–
101 kPa, x2 = 0.49	–	1.036	–	–
101 kPa, x2 = 0.5924	–	0.9727	–	–
101 kPa, x2 = 0.701	–	0.9147	–	–
101 kPa, x2 = 0.8319	–	0.844	–	–
101 kPa, x2 = 0.8998	–	0.8149	–	–
101.3 kPa, x1 = 0.099	0.9069	0.8365	0.7722	0.7123
101.3 kPa, x1 = 0.2037	0.9519	0.8775	0.8109	0.7485
101.3 kPa, x1 = 0.297	–	0.9369	0.8638	0.7984
101.3 kPa, x1 = 0.3968	1.089	1	0.925	0.8553
101.3 kPa, x1 = 0.4968	1.16	1.067	–	0.9115
101.3 kPa, x1 = 0.5973	1.247	1.153	1.065	0.9854
101.3 kPa, x1 = 0.6959	1.346	1.241	1.147	1.061
101.3 kPa, x1 = 0.8011	–	1.367	1.264	1.167
101.3 kPa, x1 = 0.893	1.603	1.481	1.358	1.254
101.3 kPa, x2 = 0.1908	–	–	1.385	–

CC(C)CCl + C1CCOC1
viscosity [mPa·s], 101 kPa
Settings	298.15 K	313.15 K
x2 = 0.0537	0.4311	0.368
x2 = 0.1037	0.4325	0.3694
x2 = 0.2081	0.4353	0.3723
x2 = 0.3079	0.4379	0.3751
x2 = 0.41	0.4409	0.3781
x2 = 0.5085	0.4442	0.381
x2 = 0.5964	0.4472	0.3837
x2 = 0.705	0.4512	0.3871
x2 = 0.8051	0.455	0.3904
x2 = 0.8989	0.4589	0.3938
x2 = 0.951	0.461	0.3957

ClC(Cl)=C(Cl)Cl + C1CCOC1
303.15 K, 101 kPa
Settings	viscosity [mPa·s]
x2 = 0.0667	0.7821
x2 = 0.1429	0.763
x2 = 0.2457	0.7362
x2 = 0.3692	0.7008
x2 = 0.4384	0.6795
x2 = 0.5309	0.6487
x2 = 0.6897	0.5914
x2 = 0.7605	0.5641
x2 = 0.8435	0.5312
x2 = 0.9213	0.4988

ClC(Cl)=C(Cl)Cl + C1COCCO1
303.15 K, 101.33 kPa
Settings	viscosity [mPa·s]
x2 = 0.0711	0.8321
x2 = 0.1527	0.8661
x2 = 0.2465	0.8991
x2 = 0.3656	0.9331
x2 = 0.4126	0.9447
x2 = 0.5332	0.9725
x2 = 0.6532	0.9982
x2 = 0.7921	1.03
x2 = 0.8937	1.055
x2 = 0.9581	1.074

O=[N+]([O-])c1ccccc1 + C1COCCO1
303.15 K, 101 kPa
Settings	viscosity [mPa·s]
x1 = 0.0852	1.058
x1 = 0.1732	1.058
x1 = 0.265	1.087
x1 = 0.3592	1.107
x1 = 0.4563	1.148
x1 = 0.5574	1.212
x1 = 0.6625	1.274
x1 = 0.7711	1.369
x1 = 0.8829	1.47

ClC(Cl)=C(Cl)Cl + CC1CCCCC1
303.15 K, 101 kPa
Settings	viscosity [mPa·s]
x1 = 0.1166	0.637
x1 = 0.2246	0.648
x1 = 0.3047	0.658
x1 = 0.4335	0.679
x1 = 0.5554	0.708
x1 = 0.6523	0.734
x1 = 0.77	0.762
x1 = 0.8108	0.773
x1 = 0.8864	0.79
x1 = 0.9342	0.801

C1CCC2CCCCC2C1 (centres undefined) + CC12CC3CC(C1)CC(C)(C3)C2
viscosity [mPa·s], 100 kPa
Settings	x2 = 0.1034	x2 = 0.2043	x2 = 0.305	x2 = 0.4034	x2 = 0.5024	x2 = 0.6048	x2 = 0.7046	x2 = 0.8094	x2 = 0.9013
293.15 K	2.607	2.713	2.812	2.919	3.039	3.167	3.31	3.465	3.622
298.15 K	2.361	2.449	2.53	2.628	2.728	2.844	2.967	3.102	3.237
303.15 K	2.148	2.227	2.299	2.384	2.468	2.57	2.675	2.799	2.909
313.15 K	1.802	1.86	1.917	1.98	2.046	2.125	2.206	2.298	2.385
323.15 K	1.505	1.547	1.592	1.641	1.697	1.759	1.825	1.902	1.974
